# Experimental data taken from article PMC2907470 (Nature chemical biology, 2010).
# Tests used:
# Scn-Ngal [1] = target: T1, Scn-Ngal (Homo sapiens, UniProt P80188); format: binding; settings: for iron retention by Scn-Ngal, dose-response: urinary compounds 0.5–100 µM, Scn-Ngal 10 µM
# Scn-Ngal [2] = target: T1, Scn-Ngal; assay: Release of ligands from Scn-Ngal on acidification; format: binding; settings: acidification from neutral pH; n = 3
# [3] = Stability of catechol in solution monitored by NMR; settings: monitored for 20 hrs by NMR, D2O
# Scn-Ngal [4] = target: T1, Scn-Ngal; assay: Fluorescence quenching analysis of Scn-Ngal with free catechol ligands; format: binding; settings: with iron III versus catechol itself
# C57BL/6 mice = format: in vivo, mouse; settings: for cleared in the urine: by 180 min after introduction; for organ distribution: i.p., 20 and 180 min
# [5] = target: Scn-Ngal K125A, K134A mutant (Homo sapiens, UniProt P80188, K145A/K154A); assay: 55Fe retention by Scn-Ngal K125A, K134A mutant; format: binding; settings: K125 and K134 mutated to alanine, versus wild type
# [6] = test system: embryonic kidney FoxD1+ stromal cells; assay: Capture of 55Fe from Scn-Ngal:catechol:55Fe by kidney stromal cells; format: cell-based, mouse; settings: 37°C, bafilomycin 0.15 nmole, 3 hrs
# [7] = test system: kidney proximal tubule LLCPK1 cells; assay: Capture of 55Fe from Scn-Ngal:catechol:55Fe by LLCPK cells; format: cell-based; settings: 37°C
# LLCPK cells = assay: Iron responsive 5'IRE-YFP reporter in LLCPK cells; format: cell-based; settings: 100 or 500 µg/ml, 16 hrs, compared to DMEM alone
# [8] = Generation of hydroxyl radicals; format: biochemical; settings: 10 µM FeCl3, 30 µM catechols, 2 mM H2O2; Scn-Ngal 10 µM where added
# Chain of Scn-Ngal K125A, K134A mutant (P80188 21-198 K145A/K154A): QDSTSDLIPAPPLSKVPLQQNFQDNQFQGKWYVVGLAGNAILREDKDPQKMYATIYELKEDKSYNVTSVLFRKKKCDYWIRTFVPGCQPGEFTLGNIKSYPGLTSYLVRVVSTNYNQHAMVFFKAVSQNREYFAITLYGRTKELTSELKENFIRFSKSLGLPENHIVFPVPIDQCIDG
molecule,measurement,setting,value
"Cc1cccc(O)c1O [3-methylcatechol, 3-methylbenzene-1,2-diol]","iron retention by Scn-Ngal, dose-response",Scn-Ngal [1],saturable iron retention
same,pH at which Scn-Ngal:ligand:FeIII complex dissociated,Scn-Ngal [2],6.0
"Cc1ccc(O)c(O)c1 [4-methylcatechol, 4-methylbenzene-1,2-diol]","iron retention by Scn-Ngal, dose-response",Scn-Ngal [1],saturable iron retention
"Oc1ccccc1O [Catechol, benzene-1,2-diol]","iron retention by Scn-Ngal, dose-response",Scn-Ngal [1],saturable iron retention
same,stability in solution,[3],stable in solution
same,increase in binding affinity in the presence of iron III,Scn-Ngal [4],100 fold
same,cleared in the urine,C57BL/6 mice,80.56±8.8%
same,pH at which Scn-Ngal:ligand:FeIII complex dissociated,Scn-Ngal [2],6.0
"O=C(N[C@H]1COC(=O)[C@@H](NC(=O)c2cccc(O)c2O)COC(=O)[C@@H](NC(=O)c2cccc(O)c2O)COC1=O)c1cccc(O)c1O [Ent, reference compound]",association of urinary catechols with Scn-Ngal in presence of competitor,Scn-Ngal [1]; 50 fold molar excess of Ent presaturated with non-radioactive iron,blocked
O=C(N[C@H]1COC(=O)[C@@H](NC(=O)c2cccc([O-])c2[O-])COC(=O)[C@@H](NC(=O)c2cccc([O-])c2[O-])COC1=O)c1cccc([O-])c1[O-].[Fe+3] [Ent:Fe],capture of siderophore:Fe by mutant Scn-Ngal,[5],ineffective
"Oc1cccc(O)c1O [Pyrogallol, benzene-1,2,3-triol]","iron retention by Scn-Ngal, dose-response",Scn-Ngal [1],saturable iron retention
same,pH at which Scn-Ngal:ligand:FeIII complex dissociated,Scn-Ngal [2],< 4
bafilomycin [reference compound],55Fe uptake,[6],inhibited
"transferrin:iron: iron-loaded transferrin, comparator [reference compound]",organ distribution,C57BL/6 mice,accumulated in the bone marrow
"Scn-Ngal:catechol:Fe: complex of the lipocalin Scn-Ngal with catechol and iron (protein, UniProt P80188 21-198, looked up, complex with catechol and iron) Neutrophil …: QDSTSDLIPAPPLSKVPLQQNFQDNQFQGKWYVVGLAGNAILREDKDPQKMYATIYELKEDKSYNVTSVLFRKKKCDYWIRTFVPGCQPGEFTLGNIKSYPGLTSYLVRVVSTNYNQHAMVFFKKVSQNREYFKITLYGRTKELTSELKENFIRFSKSLGLPENHIVFPVPIDQCIDG",55Fe uptake,[7],Uptake occurred
same,iron dependent YFP probe,LLCPK cells,activated
same,55Fe uptake,[6],Uptake occurred
same,cleared in the urine,C57BL/6 mice,56.4±6.7%
same,organ distribution,C57BL/6 mice,targeted the kidney
"Scn-Ngal: Neutrophil Gelatinase Associated Lipocalin, recombinant, expressed in BL-21 bacteria (protein, UniProt P80188 21-198, looked up) Neutrophil …: QDSTSDLIPAPPLSKVPLQQNFQDNQFQGKWYVVGLAGNAILREDKDPQKMYATIYELKEDKSYNVTSVLFRKKKCDYWIRTFVPGCQPGEFTLGNIKSYPGLTSYLVRVVSTNYNQHAMVFFKKVSQNREYFKITLYGRTKELTSELKENFIRFSKSLGLPENHIVFPVPIDQCIDG",conversion of HPF to fluorescein (hydroxyl radical formation),[8],blocked the reaction
